Where “and” joins values, the source holds several entries; their conditions need not be identical. Equal entries are not always repeated. ± gives the expanded uncertainty stated by the source.
Conditions: Crystal, Calculated from knudsen effusion weight loss

CCOC(=O)c1cc2ccccc2[nH]1 [ethyl 1H-indole-2-carboxylate]
Conditions | vapor or sublimation pressure
326.18 K | 7.9e-05 ± 7e-05 kPa and 7.4e-05 ± 7e-05 kPa
328.21 K | 0.000101 ± 7e-05 kPa and 9.8e-05 ± 7e-05 kPa and 9.1e-05 ± 7e-05 kPa
330.12 K | 0.000123 ± 7e-05 kPa and 0.000122 ± 7e-05 kPa and 0.000126 ± 7e-05 kPa
332.18 K | 0.000155 ± 7e-05 kPa and 0.000154 ± 7e-05 kPa and 0.000157 ± 7e-05 kPa
334.22 K | 0.000202 ± 7e-05 kPa and 0.000196 ± 7e-05 kPa and 0.000203 ± 7e-05 kPa
336.12 K | 0.000256 ± 7.1e-05 kPa and 0.000249 ± 7.1e-05 kPa and 0.000248 ± 7.1e-05 kPa
338.18 K | 0.000312 ± 7.1e-05 kPa and 0.000322 ± 7.1e-05 kPa
340.21 K | 0.000399 ± 7.1e-05 kPa and 0.000394 ± 7.1e-05 kPa and 0.00041 ± 7.1e-05 kPa
342.12 K | 0.000501 ± 7.2e-05 kPa and 0.000503 ± 7.2e-05 kPa and 0.000504 ± 7.2e-05 kPa
344.16 K | 0.000627 ± 7.3e-05 kPa and 0.000614 ± 7.3e-05 kPa and 0.000659 ± 7.4e-05 kPa
346.18 K | 0.000808 ± 7.6e-05 kPa and 0.000835 ± 7.6e-05 kPa and 0.000768 ± 7.5e-05 kPa
348.11 K | 0.000988 ± 7.8e-05 kPa and 0.000995 ± 7.8e-05 kPa and 0.000981 ± 7.8e-05 kPa

COC(=O)c1c[nH]c2ccccc12 [methyl 1H-indole-3-carboxylate]
Conditions | vapor or sublimation pressure
353.17 K | 0.000108 ± 7e-05 kPa and 9.8e-05 ± 7e-05 kPa and 9.7e-05 ± 7e-05 kPa
355.12 K | 0.00013 ± 7e-05 kPa and 0.000127 ± 7e-05 kPa and 0.000122 ± 7e-05 kPa
357.1 K | 0.000154 ± 7e-05 kPa and 0.000153 ± 7e-05 kPa and 0.000148 ± 7e-05 kPa
359.16 K | 0.000179 ± 7e-05 kPa and 0.000181 ± 7e-05 kPa and 0.000189 ± 7e-05 kPa
361.11 K | 0.000232 ± 7e-05 kPa and 0.000226 ± 7e-05 kPa and 0.000234 ± 7e-05 kPa
363.1 K | 0.000283 ± 7.1e-05 kPa and 0.000285 ± 7.1e-05 kPa and 0.000284 ± 7.1e-05 kPa
365.16 K | 0.000351 ± 7.1e-05 kPa and 0.000347 ± 7.1e-05 kPa and 0.000371 ± 7.1e-05 kPa
367.12 K | 0.000439 ± 7.2e-05 kPa and 0.000427 ± 7.2e-05 kPa and 0.000452 ± 7.2e-05 kPa
369.1 K | 0.000528 ± 7.2e-05 kPa and 0.000531 ± 7.2e-05 kPa and 0.000514 ± 7.2e-05 kPa
371.16 K | 0.000637 ± 7.4e-05 kPa and 0.000644 ± 7.4e-05 kPa and 0.000707 ± 7.4e-05 kPa
373.09 K | 0.000799 ± 7.6e-05 kPa and 0.000822 ± 7.6e-05 kPa and 0.000792 ± 7.5e-05 kPa
375.09 K | 0.00096 ± 7.8e-05 kPa and 0.000992 ± 7.8e-05 kPa and 0.000977 ± 7.8e-05 kPa
